The source of these data is patent EP4624465A1, “COMPOUND SERVING AS DDR1 KINASE INHIBITOR, AND MEDICINE” (Nippon Shinyaku Co., Ltd., priority 2022, dated 2024).

Experiment [1] has as its target T1, DDR1 kinase (Homo sapiens, UniProt Q08345). Briefly: Evaluation of DDR1 kinase inhibition (LANCE Ultra TR-FRET kinase assay). Also noted: purchased Carna Biosciences 08-113. The following applies: DDR1 protein 0.5 nM, LANCE Ultra ULight-poly GAT substrate, 2 hours at room temperature, duplicate; read-out: DDR-1 IC50. The class given is biochemical. Background: In TR-FRET formats the signal depends on donor and acceptor labels being close together.
Target sequence in this assay (Q08345 19-876 isoform Q08345-2 limits assumed): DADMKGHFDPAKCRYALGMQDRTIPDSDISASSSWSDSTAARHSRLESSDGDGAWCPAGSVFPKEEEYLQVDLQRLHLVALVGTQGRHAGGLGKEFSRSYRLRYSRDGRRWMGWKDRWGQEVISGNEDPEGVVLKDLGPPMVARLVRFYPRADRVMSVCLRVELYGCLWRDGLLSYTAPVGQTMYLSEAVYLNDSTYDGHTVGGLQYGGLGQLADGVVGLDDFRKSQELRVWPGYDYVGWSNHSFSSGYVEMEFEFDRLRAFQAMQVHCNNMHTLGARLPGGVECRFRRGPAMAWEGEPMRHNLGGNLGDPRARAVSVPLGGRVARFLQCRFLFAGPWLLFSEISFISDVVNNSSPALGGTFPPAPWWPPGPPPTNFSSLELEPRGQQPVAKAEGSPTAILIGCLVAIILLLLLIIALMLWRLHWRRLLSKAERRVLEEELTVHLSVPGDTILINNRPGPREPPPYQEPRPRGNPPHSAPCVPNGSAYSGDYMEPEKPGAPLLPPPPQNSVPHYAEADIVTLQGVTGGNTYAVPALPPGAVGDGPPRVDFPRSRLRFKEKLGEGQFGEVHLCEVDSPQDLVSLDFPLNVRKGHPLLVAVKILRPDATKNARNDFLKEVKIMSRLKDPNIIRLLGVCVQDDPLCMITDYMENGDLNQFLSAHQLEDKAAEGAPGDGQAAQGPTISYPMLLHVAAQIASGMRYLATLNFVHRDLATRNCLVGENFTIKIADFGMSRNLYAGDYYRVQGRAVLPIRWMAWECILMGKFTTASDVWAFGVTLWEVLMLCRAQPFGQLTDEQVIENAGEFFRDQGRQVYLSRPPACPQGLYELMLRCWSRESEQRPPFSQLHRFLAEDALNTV

Experiment [2] has as its target T1, DDR1 kinase. In words: Evaluation of DDR1 kinase inhibition in DDR1-expressing U2OS cells (type I collagen stimulation, PathHunter detection). The class given is cell-based. The arrangement: host or cells: U2OS. The following applies: type I collagen 50 µg/mL stimulation, duplicate, read-out: DDR-1 IC50. As for the experimental part: The solution was further diluted in an E-MEM medium (Fujifilm Wako Pure Chemicals, 051-07615) containing 10% fetal bovine serum (FBS, Gibco, 10270106) to 60000, 6000, 600, 60, 6, and 0.6 nM to prepare test substance solutions. 2. […] On the following day, after the plate was left at room temperature for 1 hour, a detection solution was added to the wells at […] according to the handling instructions for the PathHunter® Detection Kit (DiscoverX, 93-0001), and then incubated at room temperature for 2 hours. After the incubation, a luminescence intensity was measured by Envision (Perkin-Elmer). Tests were performed in duplicate. 3.
Target sequence in this assay (Q08345 19-913): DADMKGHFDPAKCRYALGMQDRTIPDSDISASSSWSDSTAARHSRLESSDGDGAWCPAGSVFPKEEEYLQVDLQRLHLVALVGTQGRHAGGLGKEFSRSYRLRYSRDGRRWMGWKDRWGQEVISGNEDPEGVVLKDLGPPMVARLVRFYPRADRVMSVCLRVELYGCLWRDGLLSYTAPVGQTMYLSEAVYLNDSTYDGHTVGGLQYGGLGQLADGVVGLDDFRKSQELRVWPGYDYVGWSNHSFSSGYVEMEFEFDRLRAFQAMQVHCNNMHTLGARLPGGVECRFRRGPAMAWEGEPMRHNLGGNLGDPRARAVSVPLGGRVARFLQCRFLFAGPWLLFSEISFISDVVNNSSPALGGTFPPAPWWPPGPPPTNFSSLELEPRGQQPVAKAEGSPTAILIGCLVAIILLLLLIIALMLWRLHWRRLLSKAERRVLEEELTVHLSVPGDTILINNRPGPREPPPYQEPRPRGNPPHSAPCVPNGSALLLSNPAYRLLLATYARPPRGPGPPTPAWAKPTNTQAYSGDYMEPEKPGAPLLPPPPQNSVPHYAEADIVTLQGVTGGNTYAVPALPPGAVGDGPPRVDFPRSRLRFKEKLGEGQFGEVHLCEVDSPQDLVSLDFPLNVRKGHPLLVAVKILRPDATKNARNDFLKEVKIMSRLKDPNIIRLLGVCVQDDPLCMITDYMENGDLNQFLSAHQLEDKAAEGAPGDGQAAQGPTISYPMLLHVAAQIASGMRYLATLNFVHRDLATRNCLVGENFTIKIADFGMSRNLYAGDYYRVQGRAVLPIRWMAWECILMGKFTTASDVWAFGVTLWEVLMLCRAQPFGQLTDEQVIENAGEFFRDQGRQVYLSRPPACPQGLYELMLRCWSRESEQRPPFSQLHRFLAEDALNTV

Each structure is given as a SMILES string. Counter-ions that a name gives are not always drawn.

On to `Nc1cc(C(=O)N2CCC(c3nn(CC(=O)N4CCC[C@H]4C(F)(F)F)c4cccc(F)c34)CC2)ccn1` [Compound E-81, 2-{3-[1-(2-aminopyridine-4-carbonyl)piperidin-4-yl]-4-fluoro-1H-indazol-1-yl}-1-[(28)-2-(trifluoromethyl)pyrrolidin-1-yl]ethan-1-one], for which the values for the IC50 on DDR1 kinase [1] and at DDR1 kinase [2] were 1.5 nM and 61 nM, respectively.

With `Nc1cc(C(=O)N2CC(c3nn(CC(=O)N4CCO[C@H](C(F)(F)F)C4)c4cc(F)cc(F)c34)C2)ccn1` [Compound E-82, 2-{3-[1-(2-aminopyridine-4-carbonyl)azetidin-3-yl]-4,6-difluoro-1H-indazol-1-yl}-1-[(2S)-2-(trifluoromethyl)morpholin-4-yl]ethan-1-one], the IC50 (usually the midpoint of a concentration-inhibition curve) on DDR1 kinase [1] came to 0.8 nM; at DDR1 kinase [2], 130 nM.

`CC(C)[C@@H]1COCCN1C(=O)Cn1nc(C2CN(C(=O)c3ccnc(N)c3)C2)c2c(F)cc(F)cc21` [Compound E-83, 2-{3-[1-(2-aminopyridine-4-carbonyl)azetidin-3-yl]-4,6-difluoro-1H-indazol-1-yl]-1-[(3R)-3-(propan-2-yl)morpholin-4-yl]ethan-1-one]: the figures for the IC50 on DDR1 kinase [1] and at DDR1 kinase [2] were 0.3 nM and 74 nM, respectively.

For the compound `C[C@@H]1CN(C(=O)Cn2nc(C3CN(C(=O)c4ccnc(N)c4)C3)c3c(F)cc(F)cc32)C[C@H](C)O1` [Compound E-84, 2-{3-[1-(2-aminopyridine-4-carbonyl)azetidin-3-yl)-4,6-difluoro-1H-indazol-1-yl}-1-[(2R,68)-2,6-dimethylmorpholin-4-yl]ethan-1-one], the IC50 amounted to 0.3 nM at DDR1 kinase [1] and 2300 nM on DDR1 kinase [2].

As to `CN(CC(F)(F)F)C(=O)Cn1nc(C2CN(C(=O)c3ccnc(N)c3)C2)c2c(F)cccc21` [Compound E-87, 2-{3-[1-(2-aminopyridine-4-carbonyl)azetidin-3-yl]-4-fluoro-1H-indazol-1-yl}-N-methyl-N-(2,2,2-trifluoroethyl)acetamide], the IC50 at DDR1 kinase [1] came to 22 nM; on DDR1 kinase [2], 93 nM.

On to `O=C(c1ccnc(NC2CCOCC2)c1)N1CC(c2nn(CC(=O)N3CCC[C@H]3C(F)(F)F)c3cc(F)cc(F)c23)C1` [Compound E-88, 2-[4,6-difluoro-3-(1-{2-[(oxan-4-yl)amino]pyridine-4-carbonyl}azetidin-3-yl)-1H-indazol-1-yl]-1-[(2S)-2-(trifluoromethyl)pyrrolidin-1-yl]ethan-1-one], for which the IC50 at DDR1 kinase [1] was determined as 21 nM; at DDR1 kinase [2], 1400 nM.

For the compound `Cc1c(C(=O)N2CC(c3nn(CC(=O)N4CCO[C@H](C(F)(F)F)C4)c4cc(F)cc(F)c34)C2)ccnc1N` [Compound E-89, 2-{3-[1-(2-amino-3-methylpyridine-4-carbonyl)azetidin-3-yl]-4,6-difluoro-1H-indazol-1-yl]-1-[(2S)-2-(trifluoromethyl)morpholin-4-yllethan-1-one hydrochloride], the results for the IC50 on DDR1 kinase [1] and on DDR1 kinase [2] were 45 nM and 400 nM, respectively.

In the case of `Nc1cc(C(=O)N2CCC(c3nn(CC(=O)N4CCO[C@H](C(F)(F)F)C4)c4cccc(F)c34)CC2)ccn1` [Compound E-90, 2-{3-[1-(2-aminopyridine-4-carbonyl)piperidin-4-yl]-4-fluoro-1H-indazol-1-yl]-1-[(2S)-2-(trifluoromethyl)morpholin-4-yl]ethan-1-one], the IC50 at DDR1 kinase [1] worked out at 7.4 nM; at DDR1 kinase [2], 96 nM.

In the case of `Nc1cc(C(=O)N2CCC(c3nn(CC(=O)N4CCO[C@@H](C(F)(F)F)C4)c4cccc(F)c34)CC2)ccn1` [Compound E-91, 2-{3-[1-(2-aminopyridine-4-carbonyl)piperidin-4-yl]-4-fluoro-1H-indazol-1-yl]-1-[(2R)-2-(trifluoromethyl)morpholin-4-yl]ethan-1-one], the IC50 on DDR1 kinase [1] is 11 nM; on DDR1 kinase [2], 610 nM.

As for `Nc1cc(C(=O)N2CC(c3nn(Cc4cn(CC5CCC5)nn4)c4cccc(F)c34)C2)ccn1` [Compound E-92, 4-[3-(1-{[1-(cyclobutylmethyl)-1H-1,2,3-triazol-4-yl]methyl}-4-fluoro-1H-indazol-3-yl)azetidine-1-carbonyl]pyridin-2-amine hydrochloride], the IC50 at DDR1 kinase [1] was found to be 71 nM; at DDR1 kinase [2] it was 1400 nM.

In the case of `Nc1cc(C(=O)N2CC(c3nn(CC(=O)N4CCO[C@@H](C(F)(F)F)C4)c4cccc(F)c34)C2)ccn1` [Compound E-95, 2-{3-[1-(2-aminopyridine-4-carbonyl)azetidin-3-yl]-4-fluoro-1H-indazol-1-yl}-1-[(2R)-2-(trifluoromethyl)morpholin-4-yl]ethan-1-one hydrochloride], the IC50 worked out at 7.7 nM at DDR1 kinase [1] and 480 nM at DDR1 kinase [2].

As for `Nc1cc(C(=O)N2CC(c3nn(CC(=O)N4CCC[C@H]4C(F)(F)F)c4cccc(F)c34)C2)ccn1` [Compound E-96, 2-{3-[1-(2-aminopyridine-4-carbonyl)azetidin-3-yl]-4-fluoro-1H-indazol-1-yl}-1-[(2S)-2-(trifluoromethyl)pyrrolidin-1-yl]ethan-1-one], the IC50 on DDR1 kinase [1] came to 0.9 nM; at DDR1 kinase [2] it was 84 nM.

As for `O=C(c1cnc(NC2CC2)s1)N1CC(c2nn(CC(=O)N3CCC[C@H]3C(F)(F)F)c3cc(F)cc(F)c23)C1` [Compound E-98, 2-(3-{1-[2-(cyclopropylamino)-1,3-thiazole-5-carbonyl]azetidin-3-yl]-4,6-difluoro-1H-indazol-1-yl)-1-[(2S)-2-(trifluoromethyl)pyrrolidin-1-yl]ethan-1-one], the results for the IC50 on DDR1 kinase [1] and at DDR1 kinase [2] were 86 nM and 3700 nM, respectively.

On to `Cc1nc(NC2CC2)sc1C(=O)N1CC(c2nn(CC(=O)N3CCC[C@H]3C(F)(F)F)c3cc(F)cc(F)c23)C1` [Compound E-99, 2-(3-{1-[2-(cyclopropylamino)-4-methyl-1,3-thiazole-5-carbonyl]azetidin-3-yl}-4,6-difluoro-1H-indazol-1-y1)-1-[(2S)-2-(trifluoromethyl)pyrrolidin-1-yl]ethan-1-one], for which the figures for the IC50 on DDR1 kinase [1] and on DDR1 kinase [2] were 40 nM and 150 nM, respectively.

As for `Nc1cc(C(=O)N2CC(c3nn(CC(=O)N4CCO[C@@H](C(F)(F)F)C4)c4cncc(F)c34)C2)ccn1` [Compound E-100], the IC50 was determined as 34 nM on DDR1 kinase [1] and 110 nM at DDR1 kinase [2].

For `O=C(c1cnc2ccccn12)N1CC(c2nn(CC(=O)N3CCC[C@H]3C(F)(F)F)c3cc(F)cc(F)c23)C1` [Compound E-101], the values for the IC50 on DDR1 kinase [1] and at DDR1 kinase [2] were 21 nM and 270 nM, respectively.

Consider `O=C(c1cnn2ccsc12)N1CC(c2nn(CC(=O)N3CCC[C@H]3C(F)(F)F)c3cc(F)cc(F)c23)C1` [Compound E-102], for which the values for the IC50 on DDR1 kinase [1] and on DDR1 kinase [2] were 13 nM and 3300 nM, respectively.

`Nc1cc(C(=O)N2CC(c3nn(Cc4nc(-c5ccc(F)cc5)no4)c4cccc(F)c34)C2)ccn1` [Compound E-104, 4-[3-(4-fluoro-1-{[3-(4-fluorophenyl)-1,2,4-oxadiazol-5-yl]methyl}-1H-indazol-3-yl)azetidine,1-carbonyl)pyridin-2-amine]: the values for the IC50 at DDR1 kinase [1] and at DDR1 kinase [2] were 5.2 nM and 110 nM, respectively.

`Nc1ncc(C(=O)N2CC(c3nn(CC(=O)N4CCC[C@H]4C(F)(F)F)c4cc(F)cc(F)c34)C2)o1` [Compound E-105, 2-{3-[1-(2-amino-1,3-oxazole-5-carbonyl)azetidin-3-yl]-4,6-difluoro-1H-indazol-1-yl}-1-[(28)-2-(trifluoromethyl)pyrrolidin-1-yl]ethan-1-one]: the IC50 at DDR1 kinase [1] was 79 nM; at DDR1 kinase [2] it was 370 nM.

Turning to `Cc1nc(N)sc1C(=O)N1CC(c2nn(CC(=O)N3CCC[C@H]3C(F)(F)F)c3cc(F)cc(F)c23)C1` [Compound E-106], the values for the IC50 at DDR1 kinase [1] and on DDR1 kinase [2] were 5.2 nM and 180 nM, respectively.

As to `Nc1cc(C(=O)N2CC(c3nn(C(F)C(=O)N4CCC[C@H]4C(F)(F)F)c4cc(F)cc(F)c34)C2)ccn1` (stereo partly drawn) [Compound E-107, 2-{3-[1-(2-aminopyridine-4-carbonyl)azetidin-3-yl]-4,6-difluoro-1H-indazol-1-yl}-2-fluoro-1-[(2S)-2-(trifluoromethyl)pyrrolidin-1-yl]ethan-1-one], the IC50 on DDR1 kinase [1] was 91 nM; on DDR1 kinase [2], 670 nM.

`Nc1cc(C(=O)N2CCC(c3cn(CC(=O)N4CCC[C@H]4C(F)(F)F)c4cccc(F)c34)CC2)ccn1` [Compound E-108, 2-{3-[1-(2-aminopyridine-4-carbonyp)piperidin-4-yl]-4-fluoro-1H-indol-1-yl}-1-[(2S)-2-(trifluoromethyl)pyrrolidin-1-yl]ethan-1-one]: the IC50 on DDR1 kinase [1] was 1 nM; at DDR1 kinase [2], 100 nM.

Turning to `Cc1nc(N)oc1C(=O)N1CC(c2nn(CC(=O)N3CCC[C@H]3C(F)(F)F)c3cc(F)cc(F)c23)C1` [Compound E-110, 2-{3-{1-(2-amino-4-methyl-1,3-oxazole-5-carbonyl)azetidin-3-yl}-4,6-difluoro-1H-indazol-1-yl}-1-[(2S)-2-(trifluoromethyl)pyrrolidin-1-yl]ethan-1-one], the IC50 at DDR1 kinase [1] is 45 nM; at DDR1 kinase [2], 110 nM.

Regarding `Nc1cc(C(=O)N2CC(c3nn(Cc4ccc(C(F)(F)F)cc4)c4cccc(F)c34)C2)ccn1` [Compound E-112, 4-[3-(4-fluoro-1-{[4-(trifluoromethyl)phenyllmethyl}-1H-indazol-3-yl)azetidine-1-carbonyl]pyridin-2-amine hydrochloride], the IC50 at DDR1 kinase [1] was found to be 3.7 nM; at DDR1 kinase [2] it was 170 nM.

In the case of `Nc1cc(C(=O)N2CC(c3nn(Cc4cccc(C(F)(F)F)c4)c4cccc(F)c34)C2)ccn1` [Compound E-113, 4-[3-(4-fluoro-1-{[3-(trifluoromethyl)phenyllmethyl}-1H-indazol-3-yl)azetidine-1-carbonyl]pyridin-2-amine hydrochloride], the IC50 on DDR1 kinase [1] turned out to be 25 nM; on DDR1 kinase [2], 470 nM.
